Test results reported in the NIST ThermoML archive (doi:10.1021/acs.jced.7b01030).
Several values for one entry are separate records, joined by “and”; a condition that tells them apart may be missing. Equal entries are not always repeated. ± gives the expanded uncertainty stated by the source.

Conditions: Liquid; for self diffusion coefficient: NMR spin-echo technique; for viscosity: Falling or rolling sphere viscometry; for mass density: Vibrating tube method

SMILES: OCC(F)(F)F [2,2,2-trifluoroethanol]
- self diffusion coefficient (253.24 K, 100 kPa): 1.33e-10 m2/s
- self diffusion coefficient (258.45 K, 100 kPa): 1.68e-10 m2/s
- self diffusion coefficient (258.49 K, 100 kPa): 1.68e-10 m2/s
- viscosity (263.15 K, 100 kPa): 5.502 ± 0.23 mPa·s and 5.485 ± 0.23 mPa·s
- viscosity (263.15 K, 9900 kPa): 6.125 ± 0.25 mPa·s
- viscosity (263.15 K, 10000 kPa): 6.134 ± 0.25 mPa·s
- viscosity (263.15 K, 24500 kPa): 7.159 ± 0.29 mPa·s
- viscosity (263.15 K, 24600 kPa): 7.168 ± 0.29 mPa·s
- viscosity (263.15 K, 50500 kPa): 9.212 ± 0.38 mPa·s
- viscosity (263.15 K, 50600 kPa): 9.203 ± 0.38 mPa·s
- viscosity (263.15 K, 75500 kPa): 11.52 ± 0.47 mPa·s and 11.51 ± 0.47 mPa·s
- viscosity (263.15 K, 100200 kPa): 14.28 ± 0.58 mPa·s
- viscosity (263.15 K, 101000 kPa): 14.38 ± 0.59 mPa·s
- viscosity (263.15 K, 131600 kPa): 18.4 ± 0.75 mPa·s
- viscosity (263.15 K, 132200 kPa): 18.53 ± 0.76 mPa·s
- self diffusion coefficient (263.37 K, 100 kPa): 2.05e-10 m2/s
- self diffusion coefficient (263.39 K, 100 kPa): 2.06e-10 m2/s
- viscosity (268.15 K, 100 kPa): 4.517 ± 0.19 mPa·s and 4.513 ± 0.19 mPa·s
- self diffusion coefficient (272.82 K, 79000 kPa): 1.66e-10 m2/s
- self diffusion coefficient (272.84 K, 25700 kPa): 2.48e-10 m2/s
- self diffusion coefficient (272.86 K, 100 kPa): 3.06e-10 m2/s
- self diffusion coefficient (272.87 K, 100 kPa): 3.06e-10 m2/s
- self diffusion coefficient (272.9 K, 200500 kPa): 7.6e-11 m2/s
- self diffusion coefficient (272.91 K, 299000 kPa): 4.23e-11 m2/s
- self diffusion coefficient (272.93 K, 249000 kPa): 5.7e-11 m2/s
- self diffusion coefficient (272.99 K, 150000 kPa): 1.04e-10 m2/s
- self diffusion coefficient (273.09 K, 98000 kPa): 1.46e-10 m2/s
- viscosity (273.15 K, 100 kPa): 3.798 ± 0.15 mPa·s [middle of 5 runs]
- mass density (273.15 K, 100 kPa): 1424.26 ± 0.64 kg/m3
- viscosity (273.15 K, 10400 kPa): 4.226 ± 0.17 mPa·s
- viscosity (273.15 K, 10500 kPa): 4.224 ± 0.17 mPa·s
- viscosity (273.15 K, 25500 kPa): 4.909 ± 0.2 mPa·s and 4.905 ± 0.2 mPa·s
- viscosity (273.15 K, 50500 kPa): 6.179 ± 0.25 mPa·s and 6.166 ± 0.25 mPa·s
- viscosity (273.15 K, 75000 kPa): 7.57 ± 0.47 mPa·s
- viscosity (273.15 K, 75500 kPa): 7.582 ± 0.65 mPa·s
- viscosity (273.15 K, 99800 kPa): 9.373 ± 0.98 mPa·s
- viscosity (273.15 K, 100300 kPa): 9.375 ± 0.98 mPa·s
- viscosity (273.15 K, 125600 kPa): 11.37 ± 0.46 mPa·s and 11.45 ± 0.47 mPa·s
- viscosity (273.15 K, 125700 kPa): 11.39 ± 0.46 mPa·s
- viscosity (273.15 K, 150300 kPa): 13.73 ± 0.56 mPa·s
- viscosity (273.15 K, 150700 kPa): 13.79 ± 0.56 mPa·s
- viscosity (273.15 K, 176200 kPa): 16.53 ± 0.67 mPa·s
- viscosity (273.15 K, 176400 kPa): 16.61 ± 0.68 mPa·s
- viscosity (273.15 K, 201100 kPa): 19.6 ± 0.8 mPa·s and 19.51 ± 0.79 mPa·s
- viscosity (273.15 K, 233500 kPa): 24.25 ± 0.99 mPa·s
- viscosity (273.15 K, 233700 kPa): 24.29 ± 0.99 mPa·s
- self diffusion coefficient (273.25 K, 100 kPa): 3.07e-10 m2/s
- self diffusion coefficient (273.25 K, 50000 kPa): 2.04e-10 m2/s
- self diffusion coefficient (273.8 K, 100 kPa): 3.3e-10 m2/s
- viscosity (278.15 K, 100 kPa): 3.311 ± 0.14 mPa·s and 3.305 ± 0.14 mPa·s
- mass density (278.15 K, 100 kPa): 1416.08 ± 0.64 kg/m3
- self diffusion coefficient (278.59 K, 100 kPa): 3.94e-10 m2/s
- self diffusion coefficient (278.63 K, 100 kPa): 3.87e-10 m2/s
- viscosity (283.15 K, 100 kPa): 2.746 ± 0.11 mPa·s and 2.749 ± 0.11 mPa·s
- mass density (283.15 K, 100 kPa): 1407.84 ± 0.64 kg/m3 and 1407.85 ± 0.64 kg/m3
- viscosity (288.15 K, 100 kPa): 2.363 ± 0.096 mPa·s and 2.368 ± 0.097 mPa·s
- mass density (288.15 K, 100 kPa): 1399.56 ± 0.63 kg/m3
- self diffusion coefficient (288.53 K, 100 kPa): 5.41e-10 m2/s
- self diffusion coefficient (288.56 K, 100 kPa): 5.3e-10 m2/s
- viscosity (293.15 K, 100 kPa): 2.077 ± 0.085 mPa·s [middle of 4 runs]
- mass density (293.15 K, 100 kPa): 1391.18 ± 0.63 kg/m3 and 1391.19 ± 0.63 kg/m3
- viscosity (298.15 K, 100 kPa): 1.781 ± 0.073 mPa·s [middle of 7 runs]
- mass density (298.15 K, 100 kPa): 1382.73 ± 0.63 kg/m3 and 1382.71 ± 0.63 kg/m3
- viscosity (298.15 K, 10200 kPa): 1.98 ± 0.081 mPa·s and 1.981 ± 0.081 mPa·s
- viscosity (298.15 K, 25400 kPa): 2.267 ± 0.092 mPa·s and 2.264 ± 0.092 mPa·s
- viscosity (298.15 K, 49900 kPa): 2.755 ± 0.11 mPa·s
- viscosity (298.15 K, 50200 kPa): 2.773 ± 0.11 mPa·s
- viscosity (298.15 K, 74900 kPa): 3.317 ± 0.14 mPa·s
- viscosity (298.15 K, 75100 kPa): 3.314 ± 0.14 mPa·s
- viscosity (298.15 K, 100400 kPa): 3.929 ± 0.16 mPa·s
- viscosity (298.15 K, 100600 kPa): 3.938 ± 0.16 mPa·s
- viscosity (298.15 K, 125200 kPa): 4.612 ± 0.19 mPa·s
- viscosity (298.15 K, 125400 kPa): 4.61 ± 0.19 mPa·s
- viscosity (298.15 K, 150100 kPa): 5.347 ± 0.22 mPa·s
- viscosity (298.15 K, 175000 kPa): 6.198 ± 0.25 mPa·s
- viscosity (298.15 K, 175200 kPa): 6.197 ± 0.25 mPa·s
- viscosity (298.15 K, 197500 kPa): 6.965 ± 0.49 mPa·s
- viscosity (298.15 K, 197800 kPa): 6.993 ± 0.52 mPa·s
- viscosity (298.15 K, 200700 kPa): 7.21 ± 0.38 mPa·s
- viscosity (298.15 K, 201700 kPa): 7.297 ± 0.8 mPa·s
- viscosity (298.15 K, 224400 kPa): 8.254 ± 0.63 mPa·s
- viscosity (298.15 K, 226100 kPa): 8.33 ± 0.57 mPa·s
- viscosity (298.15 K, 256900 kPa): 9.931 ± 0.4 mPa·s
- viscosity (298.15 K, 258400 kPa): 10.03 ± 0.41 mPa·s
- viscosity (298.15 K, 276700 kPa): 10.98 ± 0.45 mPa·s
- viscosity (298.15 K, 277800 kPa): 11.04 ± 0.45 mPa·s
- viscosity (298.15 K, 300600 kPa): 12.3 ± 0.5 mPa·s
- viscosity (298.15 K, 301600 kPa): 12.43 ± 0.51 mPa·s
- viscosity (298.15 K, 325400 kPa): 13.99 ± 0.57 mPa·s
- viscosity (298.15 K, 326500 kPa): 14.06 ± 0.57 mPa·s
- viscosity (298.15 K, 348800 kPa): 15.77 ± 0.64 mPa·s
- viscosity (298.15 K, 351100 kPa): 15.95 ± 0.65 mPa·s
- self diffusion coefficient (298.26 K, 100 kPa): 6.91e-10 m2/s
- self diffusion coefficient (298.32 K, 100 kPa): 6.96e-10 m2/s
- self diffusion coefficient (298.34 K, 100 kPa): 7.21e-10 m2/s
- self diffusion coefficient (298.35 K, 100 kPa): 7.06e-10 m2/s
- self diffusion coefficient (298.36 K, 100 kPa): 6.95e-10 m2/s
- self diffusion coefficient (298.55 K, 100 kPa): 6.99e-10 m2/s
- self diffusion coefficient (299.89 K, 25000 kPa): 6.08e-10 m2/s
- self diffusion coefficient (299.91 K, 50000 kPa): 5.11e-10 m2/s
- self diffusion coefficient (299.91 K, 72500 kPa): 4.38e-10 m2/s
- self diffusion coefficient (299.92 K, 100 kPa): 7.35e-10 m2/s
- self diffusion coefficient (299.92 K, 300000 kPa): 1.32e-10 m2/s
- self diffusion coefficient (299.93 K, 98000 kPa): 3.77e-10 m2/s
- self diffusion coefficient (299.93 K, 199000 kPa): 2.14e-10 m2/s
- self diffusion coefficient (299.94 K, 149000 kPa): 2.87e-10 m2/s
- self diffusion coefficient (299.94 K, 350000 kPa): 1.09e-10 m2/s
- self diffusion coefficient (299.98 K, 250000 kPa): 1.72e-10 m2/s
- self diffusion coefficient (300.4 K, 100 kPa): 7.52e-10 m2/s
- viscosity (303.15 K, 100 kPa): 1.574 ± 0.064 mPa·s and 1.565 ± 0.064 mPa·s
